# Laboratory results as given in patent publication US20260151457A1, “Peptides and Fragments for Treating Diabetes and Associated Metabolic Diseases” (Betavive Ltd., priority 2024, published 2026).
# Assays:
# [1] = Safety/toxicity: pathology of blood samples and tissue samples from thirty organs; format: in vivo; conditions: end of 10 days of treatment, 24 days after termination, and 100 days after termination of 30 days of treatment
# [2] = test system: NOD mice; assay: Incidence of spontaneous autoimmune type 1 diabetes in NOD mice treated with IGF-2; format: in vivo
# Protocol: Non-Obese Diabetic (NOD) mice are a polygenic model for spontaneous autoimmune type 1 diabetes (T1D). NOD mice have an elevated risk for development of autoimmune type 1 diabetes. Thus, NOD mice were used to determine whether treatment IGF-2 reduces spontaneous development of type 1 diabetes.
# In this experiment, one group of NOD mice (right panel) was injected with 3000 μg/kg of IGF-2 on each of 76 consecutive days, and a second group of NOD mice (left panel) was injected with saline. […] More specifically, at the end of the 76 days of treatment, only two of the treated mice had developed high glucose levels.
# FIG. 30A depicts how many NOD mice have developed autoimmune type I diabetes during an initial 66 days of treatment with IGF-2, and at various intervals post-treatment. In this experiment, one group of NOD mice was injected with 3000 μg/kg of IGF-2 on each of 66 consecutive days, and a second group of NOD mice was injected with saline.
# (§1) In one exemplary experiment, NOD mice were treated with a 3000 μg/kg daily doses of IGF-2 for 150 days. ⅘ of the treated mice maintained normoglycemia compared to ¼ of the control mice. In another exemplary experiment, NOD mice were treated with a 3000 μg/kg daily dose of IGF-2 for 75 days with follow-up glucose measurements taken for an additional 90 days (during which IGF-2 was not administered). ⅝ of the treated mice maintained normoglycemia compared to 2/11 of the control mice. The average insulin secretion of the treated mice in both of these experiments was five times greater than the control mice.
# [3] = test system: STZ-treated mice; assay: Short term effects of a single IGF-2 injection on glucose and IGF-2 levels in STZ-treated mice; format: in vivo
# Protocol: More specifically, the top panel illustrates the drop in glucose blood levels in three STZ-treated mice after receiving a 800 μg/kg/day dose of IGF-2 over a 240 minute time course. […] IGF-2 is part of a complex system comprising IGF-1 and IGF-2 along with binding proteins, proteases and other interacting molecules. A single 800 μg/kg dose of IGF-2 injected intraperitoneally lowers hyperglycemic blood glucose levels of 300-500 mg/dl to a normal level (100-200 mg/dL) for periods of over four hours. Normoglycemia is maintained while total serum IGF-2 is reduced to very low levels. […] Without being bound by this theory, it is believed that a slow release of IGF-2 from a serum complex can maintain normal blood glucose levels.
# [4] = test system: NOD mice; assay: Serum insulin / insulin secretion in NOD mice treated with IGF-2; format: in vivo
# Protocol: FIG. 30B depicts the levels of serum insulin in NOD mice measured two weeks after a 66 day course of treatment using IGF-2. Mice that were treated with 3000 μg/kg/day of IGF-2 had serum insulin levels that were about 4-fold higher than the control mice.
# as §1
# [5] = test system: NOD mice; assay: Islet cell staining for glucagon and insulin in NOD mice; format: in vivo; conditions: NOD mice treated with IGF-2 for 13 weeks
# Text: FIG. 30D confirms the results shown in FIG. 30C and provides the number of cells staining positive for insulin in NOD mice treated with IGF-2 (right bar) versus untreated NOD mice (left bar).
# [6] = test system: β-MIN6 cells; assay: Insulin secretion of β-MIN6 cells following glucose induction; format: cell-based, mouse; conditions: IGF-2 5 nM, 20 nM, 80 nM, 1 week treatment
# Text: β-MIN6 cells serve as an in vitro model of mouse pancreatic islets. β-MIN6 cells were used as an in vitro model to measure the effects of treatment with IGF-2.
# [7] = test system: db/db mice; assay: Histopathology and immunohistochemistry of pancreas islet cells in db/db mice treated with IGF-2; format: in vivo
# Protocol: FIG. 27 provides results of histopathology and immunohistochemical studies showing the number of pancreas islet cells that test positive for insulin (left panel) and glucagon (right panel) in db/db mice. In this experiment, one group of db/db mice was injected with 12000 μg/kg of IGF-2 on each of 70 consecutive days, a second group of db/db mice was injected with saline, and a third group of db/db mice was a naïve control group. The mice were sacrificed for pathology 70 days after the end of the initial 70 day treatment.
# In this experiment, one group of db/db mice (labeled X4) was injected with 12000 μg/kg of IGF-2 on each of 70 consecutive days, a second group of db/db mice (labeled X1) was injected with 3000 μg/kg of IGF-2 on each of 70 consecutive days, and a third group of db/db mice (labeled control) was injected with saline. The mice were sacrificed for pathology 70 days after the end of the initial 70 day treatment. […] The control panels show a positive stain for insulin, which increases in intensity in the 3000 μg/kg/day mice, and increases again in intensity in the 12,000 μg/kg/day mice.
# [8] = test system: STZ-treated mice; assay: Serum insulin and c-peptide levels in STZ-treated mice four weeks after IGF-2 treatment; format: in vivo; conditions: four weeks post treatment
# Protocol: Fasting blood glucose levels (mg/dL) were determined using the Accu-Chek Performa glucometer (Roche Diagnostics, Mannheim, Germany). After approximately two weeks of stable hyperglycemia, C57BL/6 STZ mice received exogenous injections of recombinant human IGF-2 (0.3-12 mg/kg/day injection) intraperitoneally for 5-10 consecutive days. During post-treatment follow-up period and upon termination, mice were tested for: fasting glucose, body weight, glucose tolerance test (IPGTT), serum C-peptide level, serum insulin level, and full blood and histological analysis (CBC, Chemistry, Insulin IHC and H&E).
# C-peptide is a biomarker used to assess pancreatic beta cell function and is normally produced in equimolar amounts to endogenous insulin. Leighton et al., A Practical Review of C-Peptide Testing in Diabetes, Diabetes Ther. 2017 June; 8 (3): 475-487.
# [9] = single 800 μg/kg dose injected intraperitoneally
substance,measurement,setting,value
insulin-like growth factor 2 [IGF-2],Pathologies related to treatment in blood samples and tissue samples from thirty organs,[1],No pathologies were identified
same,Fraction of the treated mice that maintained normoglycemia,"[2]; 3000 μg/kg daily for 75 days, follow-up for an additional 90 days",⅝
same,Fraction of the treated mice that maintained normoglycemia,[2]; 3000 μg/kg daily for 150 days,⅘
same,Incidence of spontaneous autoimmune type 1 diabetes,[2]; 3000 μg/kg on each of 66 consecutive days and post-treatment,significantly reduced
same,Incidence of spontaneous autoimmune attack,[2]; 3000 μg/kg on each of 76 consecutive days,reduced dramatically
same,Number of treated mice that had developed high glucose levels,[2]; at the end of the 76 days of treatment with 3000 μg/kg,two
same,Free IGF-2 levels relative to total IGF-2,"[3]; 800 μg/kg dose, 240 minute time course",a small fraction of the total IGF-2 concentration
same,Blood glucose level reached from hyperglycemic 300-500 mg/dl,[3]; [9],100 to 200 mg/dL
same,Period of normal blood glucose level after a single dose,[3]; [9],over four
same,Serum insulin levels relative to the control mice,"[4]; 3000 μg/kg/day for 66 days, measured two weeks after treatment",about 4 fold
same,Average insulin secretion of the treated mice relative to the control mice,[4]; both experiments (150 days; 75 days plus 90 days follow-up),five
same,Islet cells (histological staining for glucagon and insulin),[5],fully functional islet cells
same,Insulin secretion following glucose induction,[6],increases insulin secretion (following glucose induction) in a dose-dependent manner
same,Increase in the number of insulin-positive cells,"[7]; 12000 μg/kg on 70 consecutive days, sacrificed 70 days after end of treatment",more than 50%
same,Insulin positive cells (immunohistochemical staining),[7]; 3000 and 12000 μg/kg on 70 consecutive days,increase in insulin positive cells in a dose-dependent manner
same,Increase in c-peptide levels,[8]; four STZ-treated mice,12 fold
same,Increase in serum insulin compared to STZ treated control mice,[8]; permanently cured mice,50%
